# Target: p300 HAT domain (residues 1287-1666) (Homo sapiens (Human), UniProt Q09472)
# Assay: p300 HAT SPA assay (scintillation proximity assay, acetylation of biotinylated H3(1-21) peptide)
# Assay type: biochemical
# Settings: average of at least 2 replicate titrations
# Summary of the method: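 Purified p300 HAT domain reaction transferred to streptavidin plates to capture biotinylated H3(1-21) peptide, incubated 1.5 hr at RT, and read by scintillation proximity. IC50 values derived from concentration-response data.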
# Sequence of p300 HAT domain (residues 1287-1666) (Q09472 1287-1666): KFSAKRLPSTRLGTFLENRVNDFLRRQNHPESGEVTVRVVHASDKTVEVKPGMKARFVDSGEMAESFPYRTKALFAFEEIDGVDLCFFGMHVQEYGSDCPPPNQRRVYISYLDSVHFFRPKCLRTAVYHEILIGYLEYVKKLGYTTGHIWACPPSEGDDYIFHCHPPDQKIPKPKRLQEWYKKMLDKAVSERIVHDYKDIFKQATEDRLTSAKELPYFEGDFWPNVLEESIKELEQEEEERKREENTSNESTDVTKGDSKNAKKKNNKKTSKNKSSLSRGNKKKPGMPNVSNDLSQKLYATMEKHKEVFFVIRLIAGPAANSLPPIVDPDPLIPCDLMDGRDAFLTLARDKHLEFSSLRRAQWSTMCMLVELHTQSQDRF
row,Compound,IC50 [nM]
1,"Cc1cc(NC(=O)C(NC[C@@H](C)c2ccc(C#N)cc2)c2ccccc2)ncc1-c1cnn(C)c1 (single isomer, unassigned) [115 Isomer 1]",> 2000
2,"Cn1cc(-c2ccc(NC(=O)C(NCCc3ccc(C#N)cc3)c3cccc(C(F)(F)F)c3)nc2)cn1 (single isomer, unassigned) [117 Isomer 2]",> 2000
3,"CCCCCCc1cccc(C(NCCc2ccc(C#N)cc2)C(=O)Nc2ccc(-c3cnn(C)c3)cn2)c1 (single isomer, unassigned) [118 Isomer 1]",> 2000
4,"Cn1cc(-c2ccc(NC(=O)C(NCCc3ccc(C#N)cc3)c3ccc(C#N)cc3)nc2)cn1 (single isomer, unassigned) [119 Isomer 2]",1590
5,"Cn1cc(-c2ccc(NC(=O)C(NCCc3ccc(C#N)cc3)c3ccc(C(F)(F)F)cc3)nc2)cn1 (single isomer, unassigned) [120 Isomer 2]",> 2000
6,"CCCCCCc1ccc(C(NCCc2ccc(C#N)cc2)C(=O)Nc2ccc(-c3cnn(C)c3)cn2)cc1 (single isomer, unassigned) [121 racemic]",> 2000
7,"Cn1cc(-c2ccnc(NC(=O)C(NCCc3ccc(C#N)cc3)c3ccccc3)c2)cn1 (single isomer, unassigned) [122 Isomer 1]",> 60000
8,"CC1CN(c2ccc(NC(=O)C(NC[C@@H](C)c3ccc(C#N)cc3)c3ccccc3)nc2)CC(=O)N1C (single isomer, unassigned) [124 Isomer 2]",768
9,"CC1C(=O)N(C)CCN1c1ccc(NC(=O)C(NC[C@@H](C)c2ccc(C#N)cc2)c2ccccc2)nc1 (single isomer, unassigned) [126 Isomer 1]",21.1
10,"CC1C(=O)N(C)CCN1c1ccc(NC(=O)C(NC[C@@H](C)c2ccc(C#N)cc2)c2ccccc2)nc1 (single isomer, unassigned) [126 Isomer 3]",> 2000
11,"CC1C(=O)N(C)CCN1c1ccc(NC(=O)C(NC[C@@H](C)c2ccc(C#N)cc2)c2ccccc2)nc1 (single isomer, unassigned) [126 Isomer 4]",22
12,"CC(CNC(C(=O)Nc1ccc(-c2cnn(C)c2)cn1)c1cnn(C)c1)c1ccc(C#N)cc1 (single isomer, unassigned) [127 Isomer 2]",> 2000
13,"CC(CNC(C(=O)Nc1ccc(-c2cnn(C)c2)cn1)c1cnn(C)c1)c1ccc(C#N)cc1 (single isomer, unassigned) [127 Isomer 3]",> 2000
14,"CC(CNC(C(=O)Nc1ccc(-c2cnn(C(F)F)c2)cn1)c1cnn(C)c1)c1ccc(C#N)cc1 (single isomer, unassigned) [128 Isomer 2]",> 2000
15,"C[C@H](CNC(C(=O)Nc1ccc(-c2cnn(C)c2)cn1)c1cncc(F)c1)c1ccc(C#N)cc1 (single isomer, unassigned) [129 Isomer 2]",20.2
16,"Cc1n[nH]c(C)c1-c1ccc(NC(=O)C(NC[C@@H](C)c2ccc(C#N)cc2)c2ccccc2)nc1 (single isomer, unassigned) [133 Isomer 1]",1230
17,"CC(=O)N1CCN(c2ccc(NC(=O)C(NC[C@@H](C)c3ccc(C#N)cc3)c3cccc(F)c3)nc2)CC1 (single isomer, unassigned) [135 Isomer 1]",855
18,"CC(CNC(C(=O)Nc1ccc(N2CCN(C)C(=O)C2)cn1)c1cnn(C)c1)c1ccc(C#N)cc1 (single isomer, unassigned) [136 Isomer 1]",> 2000
19,"CC(CNC(C(=O)Nc1ccc(N2CCN(C)C(=O)C2)cn1)c1cnn(C)c1)c1ccc(C#N)cc1 (single isomer, unassigned) [136 Isomer 2]",> 2000
20,"CC(CNC(C(=O)Nc1ccc(N2CCN(C)C(=O)C2)cn1)c1cnn(C)c1)c1ccc(C#N)cc1 (single isomer, unassigned) [136 Isomer 4]",> 2000
21,"C[C@H](CNC(C(=O)Nc1ccc(-c2cnn(CC(=O)N(C)C)c2)cn1)c1cccc(F)c1)c1ccc(C#N)cc1 (single isomer, unassigned) [138 Isomer 1]",435
22,"C[C@H](CNC(C(=O)Nc1ccc(-c2cnn(C)c(=O)c2)cn1)c1ccccc1)c1ccc(C#N)cc1 (single isomer, unassigned) [139 Isomer 2]",> 2000
23,"Cc1ccc(CCNC(C(=O)Nc2ccc(-c3cnn(C)c3)cn2)c2ccccc2)cn1 (single isomer, unassigned) [141 Isomer 2]",> 2000
24,"Cc1ccc(C(C)CNC(C(=O)Nc2ccc(-c3cnn(C)c3)cn2)c2ccccc2)cn1 (single isomer, unassigned) [143 Isomer 1]",> 2000
25,"Cc1ccc(C(C)CNC(C(=O)Nc2ccc(-c3cnn(C)c3)cn2)c2ccccc2)cn1 (single isomer, unassigned) [143 Isomer 3]",> 2000
26,"Cn1cc(-c2ccc(NC(=O)C(NCCn3cc(C#N)cn3)c3ccccc3)nc2)cn1 (single isomer, unassigned) [144 Isomer 1]",> 2000

# The remaining lines, values ahead:
row,IC50 [nM],Compound
1,443,"Cn1cc(-c2ccc(NC(=O)C(NCCc3ccc(C#N)cc3)c3cccc(C#N)c3)nc2)cn1 (single isomer, unassigned) [116 Isomer 1]"
2,> 2000,"Cn1cc(-c2ccc(NC(=O)C(NCCc3ccc(C#N)cc3)c3cccc(C#N)c3)nc2)cn1 (single isomer, unassigned) [116 Isomer 2]"
3,> 2000,"Cn1cc(-c2ccc(NC(=O)C(NCCc3ccc(C#N)cc3)c3cccc(C(F)(F)F)c3)nc2)cn1 (single isomer, unassigned) [117 Isomer 1]"
4,1900,"CCCCCCc1cccc(C(NCCc2ccc(C#N)cc2)C(=O)Nc2ccc(-c3cnn(C)c3)cn2)c1 (single isomer, unassigned) [118 Isomer 2]"
5,374,"Cn1cc(-c2ccc(NC(=O)C(NCCc3ccc(C#N)cc3)c3ccc(C#N)cc3)nc2)cn1 (single isomer, unassigned) [119 Isomer 1]"
6,> 2000,"Cn1cc(-c2ccc(NC(=O)C(NCCc3ccc(C#N)cc3)c3ccc(C(F)(F)F)cc3)nc2)cn1 (single isomer, unassigned) [120 Isomer 1]"
7,48900,"Cn1cc(-c2ccnc(NC(=O)C(NCCc3ccc(C#N)cc3)c3ccccc3)c2)cn1 (single isomer, unassigned) [122 Isomer 2]"
8,1650,"CC1CN(C)C(=O)CN1c1ccc(NC(=O)C(NC[C@@H](C)c2ccc(C#N)cc2)c2ccccc2)nc1 (single isomer, unassigned) [125 Isomer 1]"
9,> 2000,"CC1CN(C)C(=O)CN1c1ccc(NC(=O)C(NC[C@@H](C)c2ccc(C#N)cc2)c2ccccc2)nc1 (single isomer, unassigned) [125 Isomer 2]"
10,17.4,"CC1CN(C)C(=O)CN1c1ccc(NC(=O)C(NC[C@@H](C)c2ccc(C#N)cc2)c2ccccc2)nc1 (single isomer, unassigned) [125 Isomer 3]"
11,19.6,"CC1CN(C)C(=O)CN1c1ccc(NC(=O)C(NC[C@@H](C)c2ccc(C#N)cc2)c2ccccc2)nc1 (single isomer, unassigned) [125 Isomer 4]"
12,> 2000,"CC1C(=O)N(C)CCN1c1ccc(NC(=O)C(NC[C@@H](C)c2ccc(C#N)cc2)c2ccccc2)nc1 (single isomer, unassigned) [126 Isomer 2]"
13,> 2000,"CC(CNC(C(=O)Nc1ccc(-c2cnn(C)c2)cn1)c1cnn(C)c1)c1ccc(C#N)cc1 (single isomer, unassigned) [127 Isomer 1]"
14,572,"CC(CNC(C(=O)Nc1ccc(-c2cnn(C(F)F)c2)cn1)c1cnn(C)c1)c1ccc(C#N)cc1 (single isomer, unassigned) [128 Isomer 1]"
15,> 2000,"CC(CNC(C(=O)Nc1ccc(-c2cnn(C(F)F)c2)cn1)c1cnn(C)c1)c1ccc(C#N)cc1 (single isomer, unassigned) [128 Isomer 3]"
16,75.4,"C[C@H](CNC(C(=O)Nc1ccc(-c2cnn(C)c2)cn1)c1cncc(F)c1)c1ccc(C#N)cc1 (single isomer, unassigned) [129 Isomer 1]"
17,< 2000,"Cc1nn(C)c(C)c1-c1ccc(NC(=O)C(NC[C@@H](C)c2ccc(C#N)cc2)c2ccccc2)nc1 (single isomer, unassigned) [130 Isomer 1]"
18,367,"Cc1noc(C)c1-c1ccc(NC(=O)C(NC[C@@H](C)c2ccc(C#N)cc2)c2ccccc2)nc1 (single isomer, unassigned) [131 Isomer 1]"
19,38,"Cc1noc(C)c1-c1ccc(NC(=O)C(NC[C@@H](C)c2ccc(C#N)cc2)c2ccccc2)nc1 (single isomer, unassigned) [131 Isomer 2]"
20,932,"C[C@H](CNC(C(=O)Nc1ccc(-c2cnn(CC(=O)N3CCCC3)c2)cn1)c1ccccc1)c1ccc(C#N)cc1 (single isomer, unassigned) [132 Isomer 1]"
21,> 2000,"C[C@H](CNC(C(=O)Nc1ccc(-c2ccc(=O)n(C)n2)cn1)c1ccccc1)c1ccc(C#N)cc1 (single isomer, unassigned) [134 Isomer 1]"
22,783,"C[C@H](CNC(C(=O)Nc1ccc(N2CCN(C)C(=O)C2)cn1)c1cccc(F)c1)c1ccc(C#N)cc1 (single isomer, unassigned) [137 Isomer 1]"
23,153,"Cn1cc(-c2ccc(NC(=O)C(NCCc3ccc(C(F)(F)F)nc3)c3ccccc3)nc2)cn1 (single isomer, unassigned) [140 Isomer 1]"
24,> 2000,"Cn1cc(-c2ccc(NC(=O)C(NCCc3ccc(C(F)(F)F)nc3)c3ccccc3)nc2)cn1 (single isomer, unassigned) [140 Isomer 2]"
25,95.1,"Cc1ccc(CCNC(C(=O)Nc2ccc(-c3cnn(C)c3)cn2)c2ccccc2)cn1 (single isomer, unassigned) [141 Isomer 1]"
26,> 2000,"Cn1cc(-c2ccc(NC(=O)C(NCCc3ccc(C#N)cn3)c3ccccc3)nc2)cn1 (single isomer, unassigned) [142 Isomer 1]"
27,210,"Cn1cc(-c2ccc(NC(=O)C(NCCc3ccc(C#N)cn3)c3ccccc3)nc2)cn1 (single isomer, unassigned) [142 Isomer 2]"
28,171,"Cc1ccc(C(C)CNC(C(=O)Nc2ccc(-c3cnn(C)c3)cn2)c2ccccc2)cn1 (single isomer, unassigned) [143 Isomer 4]"
29,1070,"Cn1cc(-c2ccc(NC(=O)C(NCCn3cc(C#N)cn3)c3ccccc3)nc2)cn1 (single isomer, unassigned) [144 Isomer 2]"

# Source: US11274090B2, “P300/CBP HAT inhibitors” (Constellation Pharmaceuticals, Inc., priority 2018, dated 2022)
